Where “and” joins values, the source holds several entries; their conditions need not be identical. Equal entries are not always repeated. Structures can show the parent of a compound that is named as a salt. Where two headings read alike, the source gives them in different places.
Tests used:
[1] = tested on: Huh7 cells expressing a subgenomic RNA replicon of Con1 (genotype 1b) sequence origin
[2] = in vitro; conditions: human
[3] = tested on: Huh7 cells expressing a subgenomic RNA replicon of Con1 (genotype 1b) sequence origin; assay: microbe, parasite or virus in culture; conditions: Hepatitis C virus
[4] = Huh-7, 48 h, read-out: Max Effect
[5] = Huh-7, read-out: IC50 (uM) [SG]
[6] = GETYPE1B, Huh-7, 72 h, read-out: Max Effect @CC30 (inhibition)
[7] = Huh-7, read-out: Max Effect@CC30 (inhibition)

NC1CCC(c2ccc(Cl)c(Cl)c2)c2ccccc21 (racemic)
Synergy Score [1]: 1.51 | TI (CC50/IC50) [1]: 1.252 | CC50 ([2]; CC50): 7.84 µM | IC50 ([3]; Huh-7, 48 h): 6.26 µM | Emax [3, 4]: 99%

COC1CC[C@@H](c2ccc(Cl)c(Cl)c2)c2ccccc21 (single isomer, unassigned) [Methoxy 4S-Sertraline-P1]
Max Effect@CC30 (inhibition) [1]: 93.98% | CC50 ([2]; CC50 (uM) [SG]): > 50 µM | IC90 ([3]; Huh-7): 46.1 µM | IC50 [3, 5]: 22.7 µM

N[C@@H]1CC[C@H](c2ccc(Cl)c(Cl)c2)c2ccccc21 [(1R,4R)-Desmethyl Sertraline, (1R,4R)-4-(3,4-dichlorophenyl)-1,2,3,4-tetrahydronaphthalen-1-amine]
Synergy Score [1]: 0.57 | TI (CC50/IC50) [1]: >1.206 | CC50 ([2]; CC50): > 8.83 µM | CC50 ([2]; CC50 (uM)): 8.1 µM | CC50 ([2]; CC50 (uM) [SG]): 8.1 µM | Emax [3, 6]: 0% | IC50 ([3]; Huh-7, 48 h): 7.32 µM | Emax [3, 4]: 81% | IC50 ([3]; Huh-7, 72 h): 8.7 µM | IC50 [3, 5]: 8.7 µM | Emax [3, 7]: 0%

CN(C)[C@H]1CC[C@@H](c2ccc(Cl)c(Cl)c2)c2ccc(NS(C)(=O)=O)cc21 [Dimethyl Sertraline Reverse Sulfonamide, N-((5S,8S)-5-(3,4-dichlorophenyl)-8-(dimethylamino)-5,6,7,8-tetrahydronaphthalen-2-yl)methanesulfonamide]
Synergy Score [1]: 1.22 | CC50 ([2]; CC50): > 13.4 µM | CC50 ([2]; CC50 (uM)): 16.5 µM | CC50 ([2]; CC50 (uM) [SG]): 16.5 µM | Emax [3, 6]: 70% | Emax [3, 4]: 44% | IC50 ([3]; Huh-7, 72 h): 3.45 µM | IC50 [3, 5]: 3.45 µM | Emax [3, 7]: 70%

COc1ccc(-c2nc(C(=O)N3CCN(C)CC3)sc2-c2ccc(OC)cc2)cc1 [FR122047, reference compound]
IC50 [1]: 23 µM

OCCN1CCN(CC/C=C2/c3ccccc3Sc3ccc(C(F)(F)F)cc32)CC1 [Flupentixol (e.g., dihydrochloride), Flupentixol, reference compound]
IC50 [1]: 3.6 µM

C/C1=C2/[N-][C@H]([C@H](CC(N)=O)[C@@]2(C)CCC(=O)NC[C@@H](C)OP(=O)([O-])O[C@H]2[C@@H](O)[C@@H](n3cnc4cc(C)c(C)cc43)O[C@@H]2CO)[C@]2(C)N=C(/C(C)=C3N=C(/C=C4N=C1[C@@H](CCC(N)=O)C\4(C)C)[C@@H](CCC(N)=O)[C@]\3(C)CC(N)=O)[C@@H](CCC(N)=O)[C@]2(C)CC(N)=O.[Co+3].[OH-] [Hydroxocobalamin, hydroxocobalamin, reference compound]
IC50 [1]: 1.33 µM

CCC(Cc1c(I)cc(I)c(O)c1I)C(=O)O (stereo not shown) [Iophenoxic acid, reference compound]
IC50 [1]: 10.6 µM

CCN(CC)c1ccc(C(=C2C=CC(=[N+](CC)CC)C=C2)c2cc(S(=O)(=O)O)ccc2S(=O)(=O)[O-])cc1 [Isosulfan Blue, reference compound]
IC50 [1]: 24.9 µM

Cc1ccc(NCCCc2ccccc2)c(N)c1 [JSH-23, reference compound]
IC50 [1]: 2.55 µM

C/C1=C2/[N-][C@H]([C@H](CC(N)=O)[C@@]2(C)CCC(=O)NC[C@H](C)OP(=O)([O-])O[C@H]2[C@@H](O)[C@@H](n3cnc4cc(C)c(C)cc43)O[C@@H]2CO)[C@]2(C)N=C(/C(C)=C3N=C(/C=C4N=C1[C@@H](CCC(N)=O)C\4(C)C)[C@@H](CCC(N)=O)[C@]\3(C)CC(N)=O)[C@@H](CCC(N)=O)[C@]2(C)CC(N)=O.[CH3-].[Co+3] [Mecobalamin, mecobalamin, reference compound]
IC50 [1]: 0.179 µM

COC1CC[C@@H](c2ccc(Cl)c(Cl)c2)c2ccccc21 (stereo partly drawn) [Methoxy 4S-Sertraline]
IC50 [1]: 26.4 µM | IC90 [1]: 46.1 µM and 46.9 µM | Max Effect@CC30 (inhibition) [1]: 93.98% and 47.76% | CC50 ([2]; CC50 (uM)): > 50 µM | IC50 ([3]; Huh-7): 22.7 µM

C[C@@H]1C[C@H]2[C@@H]3CCC4=CC(=O)C=C[C@]4(C)[C@@]3(Cl)[C@@H](O)C[C@]2(C)[C@@]1(O)C(=O)CCl [Mometasone (e.g., furoate), mometasone, reference compound]
IC50 [1]: 11.3 µM

CN(C)[C@H]1CC[C@@H](c2ccc(Cl)c(Cl)c2)c2ccccc21 [N,N-Dimethyl Sertraline, (1S,4S)-4-(3,4-dichlorophenyl)-N,N-dimethyl-1,2,3,4-tetrahydronaphthalen-1-amine]
Synergy Score [1]: 0.89 | TI (CC50/IC50) [1]: >1.727 | CC50 ([2]; CC50): > 13.4 µM | CC50 ([2]; CC50 (uM)): 72.2 µM | CC50 ([2]; CC50 (uM) [SG]): 64.7 ± 10.6 µM | Emax [3, 6]: 99% | IC90 ([3]; Huh-7): 18.1 ± 2.77 µM | IC50 ([3]; Huh-7, 48 h): 7.77 µM | Emax [3, 4]: 70% | IC50 ([3]; Huh-7, 72 h): 5.22 ± 2.2 µM | IC90 ([3]; Huh-7, 72 h): 17.1 ± 2.93 µM | IC50 [3, 5]: 6.07 ± 2.2 µM | Emax [3, 7]: 99%

CN[C@H]1CC[C@@H](c2ccc(Cl)c(Cl)c2)c2ccc(NS(=O)(=O)C3CC3)cc21 [N-((5S,8S)-5-(3,4-dichlorophenyl)-8-(methylamino)-5,6,7,8-tetrahydronaphthalen-2-yl)cyclopropanesulfonamide]
Max Effect@CC30 (inhibition) [1]: 56.82% | CC50 ([2]; CC50 (uM)): 7.45 µM | CC50 ([2]; CC50 (uM) [SG]): 7.45 µM | IC50 ([3]; Huh-7): 5.63 µM | IC90 ([3]; Huh-7): 10.7 µM | IC50 [3, 5]: 5.62 µM | Emax [3, 7]: 58.8%

CN[C@H]1CC[C@@H](c2ccc(Cl)c(Cl)c2)c2ccc(CNS(C)(=O)=O)cc21 [N-(((5S,8S)-5-(3,4-dichlorophenyl)-8-(methylamino)-5,6,7,8-tetrahydronaphthalen-2-yl)methyl)methanesulfonamide]
Synergy Score [1]: 0.55 | TI (CC50/IC50) [1]: 1.761 | CC50 ([2]; CC50): 10.5 µM | CC50 ([2]; CC50 (uM)): 11.2 ± 0.3 µM | CC50 ([2]; CC50 (uM) [SG]): 11.2 ± 0.3 µM | Emax [3, 6]: 59.7 ± 3.5% | IC50 ([3]; Huh-7, 48 h): 5.97 µM | Emax [3, 4]: 100% | IC50 ([3]; Huh-7, 72 h): 3.28 ± 1.5 µM | IC50 [3, 5]: 3.28 ± 1.5 µM | Emax [3, 7]: 59.7 ± 3.5%

O=C1C(Cl)=C(NCCN2CCOCC2)C(=O)c2ncccc21 [NSC 663284, reference compound]
IC50 [1]: 0.614 µM

CCCCC1C(=O)N(c2ccccc2)N(c2ccc(O)cc2)C1=O (stereo not shown) [Oxyphenbutazone (e.g., hydrate), oxyphenbutazone, reference compound]
IC50 [1]: 4.17 µM

Nc1ccc(C(=O)O)c(O)c1 [P-Aminosalicylic acid, reference compound]
IC50 [1]: 13.2 µM

O=C1Nc2ccc3ncsc3c2/C1=C/c1cnc[nH]1 [PKR inhibitor, reference compound]
IC50 [1]: 1.75 µM

CCCCC(CC)COC(=O)c1ccc(N(C)C)cc1 (stereo not shown) [Padimate O]
IC50 [1]: 5.44 µM

COc1ccc(CCN(C)CCC[C@](C#N)(c2ccc(OC)c(OC)c2)C(C)C)cc1OC [R(+)-Verapamil (e.g., hydrochloride), R(+)-Verapamil, reference compound]
IC50 [1]: 15.7 µM

CC(=O)[O][Pt]([NH2])([Cl])([Cl])([NH]C1CCCCC1)[O]C(C)=O [Satraplatin, reference compound]
IC50 [1]: 4.8 µM

CN[C@H]1CC[C@@H](c2ccc(Cl)c(Cl)c2)c2ccccc21 [Sertraline (e.g., hydrochloride), Sertraline, reference compound]
Synergy Score [1]: 2.76 | CC50 at 48 h ([2]; CC50): 8.83 µM | Emax [3, 4]: 99%

CN[C@H]1CC[C@@H](c2ccc(Cl)c(Cl)c2)c2ccc(CO)cc21 [Sertraline A-Ring Ethanol, ((5S,8S)-5-(3,4-dichlorophenyl)-8-(methylamino)-5,6,7,8-tetrahydronaphthalen-2-yl)methanol]
Synergy Score [1]: 1.46 | TI (CC50/IC50) [1]: 2.472 | CC50 ([2]; CC50): 11.1 µM | CC50 ([2]; CC50 (uM)): 14.2 ± 0.3 µM | CC50 ([2]; CC50 (uM) [SG]): 14.2 ± 0.3 µM | Emax [3, 6]: 92 ± 5.6% | IC90 ([3]; Huh-7): 11.3 ± 2.91 µM | IC50 ([3]; Huh-7, 48 h): 4.48 µM | Emax [3, 4]: 97% | IC50 ([3]; Huh-7, 72 h): 2.85 ± 1.21 µM | IC90 ([3]; Huh-7, 72 h): 11.3 ± 2.91 µM | IC50 [3, 5]: 2.85 ± 1.21 µM | Emax [3, 7]: 92 ± 5.6%

CN[C@H]1CC[C@@H](c2ccc(Cl)c(Cl)c2)c2ccc(C(=O)OC)cc21 [Sertraline A-ring Methyl Ester, (5S,8S)-methyl 5-(3,4-dichlorophenyl)-8-(methylamino)-5,6,7,8-tetrahydronaphthalene-2-carboxylate]
Synergy Score [1]: 0.51 | TI (CC50/IC50) [1]: 1.248 | CC50 ([2]; CC50): 8.01 µM | CC50 ([2]; CC50 (uM)): 13.7 µM | CC50 ([2]; CC50 (uM) [SG]): 13.7 µM | Emax [3, 6]: 78% | IC50 ([3]; Huh-7, 48 h): 6.42 µM | Emax [3, 4]: 99% | IC50 ([3]; Huh-7, 72 h): 9.13 µM | IC50 [3, 5]: 9.13 µM | Emax [3, 7]: 78%

CNC1CCC(c2ccc(C(F)(F)F)cc2)c2ccccc21 (stereo not shown) [Sertraline B-Ring para-Trifluoromethane, N-methyl-4-(4-(trifluoromethyl)phenyl)-1,2,3,4-tetrahydronaphthalen-1-amine]
Synergy Score [1]: 1.93 | TI (CC50/IC50) [1]: 1.299 | CC50 ([2]; CC50): 15.9 µM | CC50 ([2]; CC50 (uM)): 14.2 µM | CC50 ([2]; CC50 (uM) [SG]): 14.2 µM | Emax [3, 6]: 0% | IC50 ([3]; Huh-7, 48 h): 12.2 µM | Emax [3, 4]: 99% | IC50 ([3]; Huh-7, 72 h): 13.4 µM | IC50 [3, 5]: 13.4 µM | Emax [3, 7]: 0%

CNC1CCC(c2ccc(Oc3ccccc3)cc2)c2ccccc21 (stereo not shown) [Sertraline B-ring para-Phenoxy, N-methyl-4-(4-phenoxyphenyl)-1,2,3,4-tetrahydronaphthalen-1-amine]
Synergy Score [1]: 0.38 | TI (CC50/IC50) [1]: 1.987 | CC50 ([2]; CC50): 7.46 µM | CC50 ([2]; CC50 (uM)): 6.8 µM | CC50 ([2]; CC50 (uM) [SG]): 7.85 ± 1.48 µM | Emax [3, 6]: 65% | IC50 ([3]; Huh-7, 48 h): 3.75 µM | Emax [3, 4]: 99% | IC50 ([3]; Huh-7, 72 h): 5.15 µM | IC50 [3, 5]: 4.02 ± 1.6 µM | Emax [3, 7]: 81 ± 22.6%

N#CC(C#N)=Cc1ccc(O)c(O)c1 [Tyrphostin 23, tyrphostin 23, reference compound]
IC50 [1]: 14.6 µM

N#CC(C#N)=Cc1cc(O)c(O)c(O)c1 [Tyrphostin 25, tyrphostin 25, reference compound]
IC50 [1]: 16 µM

N#C/C(=C\c1ccc(O)c(O)c1)C(N)=O [Tyrphostin 46, tyrphostin A46, reference compound]
IC50 [1]: 21.2 µM

COc1cc2ncnc(Nc3cccc(Cl)c3)c2cc1OC [Tyrphostin Ag 1478, tyrphostin AG 1478, reference compound]
IC50 [1]: 3.41 µM

CC(=O)ON=C1C(=O)N(Cc2cc(Cl)ccc2Cl)c2ccc(Cl)cc21 [UCH-L1 inhibitor, reference compound]
IC50 [1]: 17.2 µM

Cc1cc(N)c2ccccc2c1O [Vitamin K5]
IC50 [1]: 19.6 µM

N-Tosyl-L-phenylalanine chloromethyl ketone [reference compound]
IC50 [1]: 16.7 µM

From patent US20100009970A1, “COMPOSITIONS AND METHODS FOR TREATMENT OF VIRAL DISEASES” (Combinatorx (Singapore) Pte. Ltd., priority 2008, published 2010)
